The results in this text go back to US8455475B2 (Gruenenthal GmbH, priority 2009, dated 2013).

Assay [1] addresses T1, human B1R (bradykinin receptor 1) (Homo sapiens, UniProt P46663).
T1 construct: expressed in transfected cells; host or cells: CHO K1 cells
T1 sequence (P46663 1-353): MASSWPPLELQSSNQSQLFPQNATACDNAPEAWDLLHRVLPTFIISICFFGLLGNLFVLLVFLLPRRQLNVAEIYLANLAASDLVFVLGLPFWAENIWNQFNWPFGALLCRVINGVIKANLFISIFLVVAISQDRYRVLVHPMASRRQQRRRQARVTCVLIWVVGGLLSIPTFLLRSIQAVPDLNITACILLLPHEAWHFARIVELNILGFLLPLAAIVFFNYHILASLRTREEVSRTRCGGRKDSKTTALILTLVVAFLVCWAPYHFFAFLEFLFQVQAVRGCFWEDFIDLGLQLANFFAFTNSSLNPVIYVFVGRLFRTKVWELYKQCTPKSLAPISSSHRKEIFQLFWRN
Put plainly: FLIPR Ca2+ assay (Fluo-4) on CHO K1 cells stably transfected with the human B1R gene (hB1R cells): % inhibition at 10 μM / IC50, agonist Lys-Des-Arg9-bradykinin. In kind it is cell-based. To be noted: for inhibition at 10 µM: CHO-K1, human B1R. The method, then: The agonistic or antagonistic action of substances can be quantified on the bradykinin receptor 1 (B1R) of the human and rat species with ectopically expressing cell lines (CHO K1 cells) and with the aid of a Ca^2+-sensitive dyestuff (Fluo-4) in a fluorescent imaging plate reader (FLIPR). The figure in % activation is based on the Ca^2+ signal after addition of Lys-Des-Arg^9-bradykinin (0.5 nM) or Des-Arg^9-bradykinin (100 nM). Antagonists lead to a suppression of the Ca^2+ inflow after addition of the agonist. % inhibition compared with the maximum achievable inhibition is stated.
The agonistic or antagonistic action of substances can be determined on the bradykinin receptor 1 (B1R) of the human and rat species with the following assay. In accordance with this assay, the Ca^2+ inflow through the channel is quantified with the aid of a Ca^2+-sensitive dyestuff (type Fluo-4, Molecular Probes Europe BV, Leiden, Holland) in a fluorescent imaging plate reader (FLIPR, Molecular Devices, Sunnyvale, USA).
Chinese hamster ovary cells (CHO K1 cells) transfected stably with the human B1R gene (hB1R cells) or the B1R gene of the rat (rB1R cells) are used. For functional studies, these cells are plated out on black 96-well plates with a clear base (BD Biosciences, Heidelberg, Germany or Greiner, Frickenhausen, Germany) in a density of 20,000-35,000 cells/well. The cells are left overnight at 37° C. and 5% CO2 in culture medium (hB1R cells: Nutrient Mixture Ham's F12, Gibco Invitrogen GmbH, Karlsruhe, Germany or DMEM, Sigma-Aldrich, Taufkirchen, Germany; rB1R cells: D-MEM/F12, Gibco Invitrogen GmbH, Karlsruhe, Germany) with 10 vol. % FBS (foetal bovine serum, Gibco Invitrogen GmbH, Karlsruhe, Germany or PAN Biotech GmbH, Aidenbach, Germany). On the following day, the cells are loaded for 60 min at 37° C. with 2.13 μM Fluo-4 (Molecular Probes Europe BV, Leiden Holland) in HBSS buffer (Hank's buffered saline solution, Gibco Invitrogen GmbH, Karlsruhe, Germany) with 2.5 mM probenecid (Sigma-Aldrich, Taufkirchen, Germany) and 10 mM HEPES (Sigma-Aldrich, Taufkirchen, Germany). The plates are then washed 2× with HBSS buffer, and HBSS buffer which additionally contains 0.1% BSA (bovine serum albumin; Sigma-Aldrich, Taufkirchen, Germany), 5.6 mM glucose and 0.05% gelatine (Merck KGaA, Darmstadt, Germany) is added. After a further incubation of 20 minutes at room temperature, the plates are inserted into the FLIPR for the Ca^2+ measurement. Alternatively, the plates are washed with buffer A (15 mM HEPES, 80 mM NaCl, 5 mM KCl, 1.2 mM CaCl2, 0.7 mM MgSO4, 2 g/l glucose, 2.5 mM probenecid), buffer A is added and the plates are loaded with 2.5 μM Fluo-4 and 0.025% Pluronic F127 (Sigma-Aldrich, Taufkirchen, Germany). Thereafter, the cells are washed 2× with buffer A and incubated for 30 minutes at room temperature with buffer A, which additionally contains 0.05% BSA and 0.05% gelatine, and thereafter inserted into the FLIPR for the Ca^2+ measurement. The Ca^2+-dependent fluorescence is measured here before and after addition of substances (λex=488 nm, λem=540 nm). Quantification is by measurement of the highest fluorescence intensity (FC, fluorescence counts) over time.
The FLIPR protocol consists of 2 additions of substance. Test substances (10 μM) are first pipetted on to the cells and the Ca^2+ inflow is compared with the control (hB1R: Lys-Des-Arg^9-bradykinin>=50 nM; rB1R: Des-Arg^9-bradykinin 10 μM). This gives the result in % activation based on the Ca^2+ signal after addition of Lys-Des-Arg^9-bradykinin (>=50 nM) or Des-Arg^9-bradykinin (10 μM). After incubation for 10-20 minutes, Lys-Des-Arg^9-bradykinin (hB1R) or Des-Arg^9-bradykinin (rB1R) in the concentration of the EC80 is applied and the inflow of Ca^2+ is likewise determined. Antagonists lead to a suppression of the Ca^2+ inflow. % inhibition compared with the maximum achievable inhibition is calculated.
For determination of the IC50 value, the substances are added in various concentrations. […]

The target in assay [2] is T2, rat B1R (bradykinin receptor 1) (Rattus norvegicus, UniProt P97583).
T2 construct: expressed in transfected cells; host or cells: CHO K1 cells
T2 sequence (P97583 1-337): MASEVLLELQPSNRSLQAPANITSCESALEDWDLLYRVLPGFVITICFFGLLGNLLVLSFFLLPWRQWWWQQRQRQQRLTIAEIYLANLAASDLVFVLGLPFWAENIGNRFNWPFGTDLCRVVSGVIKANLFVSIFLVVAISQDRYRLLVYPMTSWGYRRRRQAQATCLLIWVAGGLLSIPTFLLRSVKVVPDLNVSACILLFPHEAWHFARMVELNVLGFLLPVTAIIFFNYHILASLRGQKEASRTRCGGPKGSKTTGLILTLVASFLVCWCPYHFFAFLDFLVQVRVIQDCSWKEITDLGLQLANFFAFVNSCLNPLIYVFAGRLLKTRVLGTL
Put plainly: FLIPR Ca2+ assay (Fluo-4) on CHO K1 cells stably transfected with the B1R gene of the rat (rB1R cells): % inhibition at 10 μM / IC50, agonist Des-Arg9-bradykinin. In kind it is cell-based. To be noted: for inhibition at 10 µM: CHO-K1, rat B1R. Summed up:
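Loading with Fluo-4 occurs for 60 min at 37 °C, or alternatively in buffer A, before FLIPR measurement. Compounds are applied, incubated 10–20 min, and then the EC80 agonist is added. Antagonism appears as reduced peak Ca2+ signal relative to maximal inhibition.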

For “2-Chloro-N-[2,2-dimethyl-6-(9-pyridin-4-yl-3,9-diazaspiro[5.5]undecane-3-carbonyl)-1,3-dihydro-inden-1-yl]-3-(trifluoromethyl)-benzamide [IND_CC-234]”, the “% Inhibition (human B1R) at 10 μM” value in assay [1] came out at 85%. In addition, the “% Inhibition (rat B1R) at 10 μM” value in assay [2] came out at 99%.
In the same order, the values of “2-Chloro-N-[6-(2-pyridin-4-yl-2,8-diazaspiro[4.5]decane-8-carbonyl)-2,3-dihydro-1H-inden-1-yl]-6-(trifluoromethyl)-benzamide [IND_CC-205]” are 100% and 103%.
The inhibition is the relative decrease from the control value, in per cent. For `O=C(c1ccc2c(c1)C(N1Cc3cccc(Cl)c3C1=O)CC2)N1CCC2(CC1)CCN(c1ccncc1)CC2` (stereo not drawn) [Example H-01, 7-chloro-2-[6-(9-pyridin-4-yl-3,9-diazaspiro[5.5]undecane-3-carbonyl)-2,3-dihydro-1H-indan-1-yl]-2,3-dihydro-isoindol-1-one], the inhibition at 10 µM in assay [1] came to 100%; in assay [2], 97%.
For `O=C(NC1CCc2ccc(C(=O)N3CCC4(CC3)CCN(c3ccncc3)CC4)cc21)c1ccccc1Cl` (stereo not drawn) [Example H-02, 2-chloro-N-[6-(3-pyridin-4-yl-3,9-diazaspiro[5.5]undecane-9-carbonyl)-2,3-dihydro-1H-inden-1-yl]-benzamide], the “% Inhibition (human B1R) at 10 μM” value in assay [1] (10 µM) was 100%. Also, the “% Inhibition (rat B1R) at 10 μM” value in assay [2] (10 µM) worked out at 100%.
Take `COc1cc(C)c(S(=O)(=O)NC2CCc3ccc(C(=O)N4CCC5(CC4)CCN(c4ccncc4)CC5)cc32)c(C)c1` (stereo not drawn) [Example H-03, 4-methoxy-2,6-dimethyl-N-[6-(9-pyridin-4-yl-3,9-diazaspiro[5.5]undecane-3-carbonyl)-2,3-dihydro-1H-inden-1-yl)-benzenssulfonic acid amide]: the “% Inhibition (human B1R) at 10 μM” value in assay [1] (10 µM) was determined as 98%. For the same compound, the “% Inhibition (rat B1R) at 10 μM” value in assay [2] (10 µM) came out at 104%.
For the compound `O=C(NC1CCc2ccc(C(=O)N3CCC4(CCN(c5ccncc5)C4)C3)cc21)c1ccccc1Cl` (stereo not drawn) [Example H-04, 2-chloro-N-[6-(8-pyridin-4-yl-3,8-diazaspiro[4.4]nonane-3-carbonyl)-2,3-dihydro-1H-inden-1-yl]-benzamide], the inhibition at 10 µM in assay [1] came out at 100%; in assay [2], 106%.
For `O=C(NC1CCc2ccc(C(=O)N3CCC4(CCN(c5ccncc5)CC4)C3)cc21)c1ccccc1Cl` (stereo not drawn) [Example H-05, 2-chloro-N-[6-(8-pyridin-4-yl-3,8-diazaspiro[4.5]decane-3-carbonyl)-2,3-dihydro-1H-inden-1-yl]-benzamide], in assay [1], the “% Inhibition (human B1R) at 10 μM” value is given as 100%. Also, the “% Inhibition (rat B1R) at 10 μM” value in assay [2] (10 µM) is on record as 105%.
With `O=C(NC1CCc2ccc(C(=O)N3CCC4(CCC(N5CCC5)CC4)CC3)cc21)c1ccccc1Cl` (stereo not drawn) [Example H-06, N-[6-[9-(azetidin-1-yl)-3-azaspiro[5.5]undecane-3-carbonyl)-2,3-dihydro-1H-indan-1-yl]-2-chloro-benzamide], the figures for the inhibition at 10 µM in assay [1] and in assay [2] were 60% and 98%, respectively.
The matching figures for `O=C(NC1CCc2ccc(C(=O)N3CCC4(CCC(N5CC(F)(F)C5)CC4)CC3)cc21)c1ccccc1Cl` (stereo not drawn) [Example H-07, 2-chloro-N-[6-[9-(3,3-difluoro-azetidin-1-yl)-3-azaspiro[5.5]undecane-3-carbonyl]-2,3-dihydro-1H-inden-1-yl]-benzamide]: 34% and 69%.
In the same order, the values of `O=C(NC1CCc2ccc(C(=O)N3CCC4(CCC(Oc5ccncc5)CC4)CC3)cc21)c1ccccc1Cl` (stereo not drawn) [Example H-08] are 71% and 100%.
As to `O=C(N[C@@H]1CCCc2ccc(C(=O)N3CCC4(CC3)CCN(c3ccncc3)CC4)cc21)c1ccccc1Cl` [Example H-09, 2-chloro-N-[(1R)-7-(9-pyridin-4-yl-3,9-diazaspiro[5.5]undecane-3-carbonyl)-1,2,3,4-tetrahydro-naphthalen-1-yl]-benzamide], the inhibition at 10 µM was 100% in assay [1] and 102% in assay [2].
`O=C(N[C@H]1CCCc2ccc(C(=O)N3CCC4(CC3)CCN(c3ccncc3)CC4)cc21)c1ccccc1Cl` [Example H-10, 2-chloro-N-[(1S)-7-(9-pyridin-4-yl-3,9-diazaspiro[5.5]undecane-3-carbonyl)-1,2,3,4-tetrahydro-naphthalen-1-yl]-benzamide]: the inhibition at 10 µM in assay [1] amounted to 49%; in assay [2] it was 103%.
Consider `O=C(N[C@@H]1CCCc2ccc(C(=O)N3CCC4(CCN(c5ccncc5)CC4)C3)cc21)c1ccccc1Cl` [Example H-11, 2-chloro-N-[(1R)-7-(8-pyridin-4-yl-3,8-diazaspiro[4.5]decane-3-carbonyl]-1,2,3,4-tetrahydro-naphthalen-1-yl]-benzamide], for which the values for the inhibition at 10 µM in assay [1] and in assay [2] were 99% and 103%, respectively.
For `O=C(N[C@H]1CCCc2ccc(C(=O)N3CCC4(CCN(c5ccncc5)CC4)C3)cc21)c1ccccc1Cl` [Example H-12, 2-chloro-N-[(1S)-7-(8-pyridin-4-yl-3,8-diazaspiro[4.5]decane-3-carbonyl]-1,2,3,4-tetrahydro-naphthalen-1-yl]-benzamide], the inhibition at 10 µM amounted to 97% in assay [1] and 102% in assay [2].
Turning to `O=C(c1ccc2c(c1)[C@H](N1Cc3cccc(Cl)c3C1=O)CCC2)N1CCC2(CCN(c3ccncc3)CC2)C1` [Example H-13, 7-chloro-2-[(1R)-7-(8-pyridin-4-yl-3,8-diazaspiro[4.5]decane-3-carbonyl)-1,2,3,4-tetrahydro-naphthalen-1-yl]-2,3-dihydro-isoindol-1-one], the figures for the inhibition at 10 µM in assay [1] and in assay [2] were 100% and 101%, respectively.
